Read-outs that look alike come from different tables or passages of the source.
Experiments:
[1] = Bioavailability after single dose: sublingual tablets (Examples I-III) versus conventional oral tablets, crossed randomized studies; conditions: for AUC(0-inf) / AUC(0-t) / Cmax / Tmax / concentration / concentration at 0 min / concentration at 20 min / concentration at 40 min / concentration at 1 h / concentration at 2 h / concentration at 2.5 h / concentration at 4 h / concentration at 6 h / concentration at 8 h / concentration at 10 h / concentration at 12 h / concentration at 24 h: male, human, plasma; for AUC and Cmax, sublingual versus oral: sublingual versus conventional oral tablets
Description: Three studies were carried out, each of them with eight healthy volunteers of the male sex, recruited after information on the nature and characteristics of the principles included in the scope of the study. Each study, composed of two periods of treatment, was carried out according to a crossed and randomized scheme. All individuals received the previously established dose of the active ingredient in the form of conventional oral tablets and sublingual tablets, with a period of detoxication of, at least, seven days between the first and the following administration, according to a previously established randomized list. The sublingual tablets were placed under the tongue until complete dissolution, in correspondence with the venous plexus, while the conventional oral tablets were swallowed unbroken with 150 ml of mineral water. Within the intervals of 0-20-40 minutes, 1-1,5-2-2,5-3-3,5-4-6-8-10-[…] and 24 hours after the treatment, 5 ml of blood were collected.

[2] = cited from earlier work; for plasmatic concentration peak: 2 mg tablets

Row | SMILES | AUC(0-inf) [1] [ng·h/mL] | AUC(0-t) [1] [ng·h/mL] | Cmax [1] [ng/mL] | Tmax [1] [min] | concentration ([1]; other: sublingual) [ng/mL] | concentration at 0 min ([1]; other: sublingual) [ng/mL] | concentration at 20 min ([1]; other: sublingual) [ng/mL] | concentration at 40 min ([1]; other: sublingual) [ng/mL] | concentration at 1 h ([1]; other: sublingual) [ng/mL] | concentration at 2 h ([1]; other: sublingual) [ng/mL] | concentration at 2.5 h ([1]; other: sublingual) [ng/mL] | concentration at 4 h ([1]; other: sublingual) [ng/mL] | concentration at 6 h ([1]; other: sublingual) [ng/mL] | concentration at 8 h ([1]; other: sublingual) [ng/mL] | concentration at 10 h ([1]; other: sublingual) [ng/mL] | concentration at 12 h ([1]; other: sublingual) [ng/mL] | concentration at 24 h ([1]; other: sublingual) [ng/mL] | Tmax ([1]; other: sublingual versus oral) [min] | AUC(0-inf) ([1]; po) [ng·h/mL] | AUC(0-t) ([1]; po) [ng·h/mL] | other results
1 | O=C1CN=C(c2ccccn2)c2cc(Br)ccc2N1 [BROMAZEPAN, bromazepam] | 1900 ± 326 | 1160 ± 102 | 120 ± 12.1 | 45 ± 9 | 67.9 ± 6.1 | 0 | 80.8 ± 11.3 | 109 ± 22.1 | 110 ± 15.2 | 84 ± 5.7 | 74.2 ± 5.7 | 63.4 ± 5.5 | 57.1 ± 5 | 49.4 ± 7 | 44.8 ± 6.2 | 38.8 ± 5.6 | 33.5 ± 6.1 | ~30 | 1760 ± 223 | 1130 ± 60.2 | Cmax ([1]; po): 125 ± 9.81 ng/mL; Tmax ([1]; po): 75 ± 22.8 min; concentration ([1]; po): 70.2 ± 6.8 ng/mL; concentration at 20 min ([1]; po): 69 ± 10.1 ng/mL; concentration at 40 min ([1]; po): 91.7 ± 5.6 ng/mL; concentration at 1 h ([1]; po): 117 ± 14.9 ng/mL; concentration at 2 h ([1]; po): 91.6 ± 9.7 ng/mL; concentration at 2.5 h ([1]; po): 77.2 ± 5.9 ng/mL; concentration at 4 h ([1]; po): 63.1 ± 6.9 ng/mL; concentration at 6 h ([1]; po): 53.4 ± 4.8 ng/mL; concentration at 8 h ([1]; po): 49.1 ± 4.4 ng/mL; concentration at 10 h ([1]; po): 42.7 ± 3.1 ng/mL; concentration at 12 h ([1]; po): 37.9 ± 3 ng/mL; concentration at 24 h ([1]; po): 30.2 ± 3.8 ng/mL; AUC and Cmax, sublingual versus oral [1]: comparable
2 | O=C1Nc2ccc(Cl)cc2C(c2ccccc2Cl)=NC1O (stereo not drawn) [LORAZEPAM, lorazepam] | 621 ± 70.1 | 452 ± 53 | 56.9 ± 8.41 | 42.6 ± 720 | 28.3 ± 4.2 | 0 | 44.5 ± 5.9 | 56.5 ± 8.5 | 47.9 ± 8.5 | 37.2 ± 7.7 | 32.2 ± 4.4 | 25.6 ± 5 | 22.8 ± 4.61 | 9.6 ± 3.7 | 17.6 ± 2.6 | 14.5 ± 2.3 | 10.3 ± 1.1 | ~30 | 656 ± 143 | 454 ± 74.1 | Cmax ([1]; po): 54.4 ± 4.98 ng/mL; Tmax ([1]; po): 91.2 ± 29.4 min; concentration ([1]; po): 33.4 ± 10.3 ng/mL; concentration at 0 min ([1]; po): 0 ng/mL; concentration at 20 min ([1]; po): 30.8 ± 9.4 ng/mL; concentration at 40 min ([1]; po): 41 ± 10.4 ng/mL; concentration at 1 h ([1]; po): 46.1 ± 7.9 ng/mL; concentration at 2 h ([1]; po): 47.3 ± 9.1 ng/mL; concentration at 2.5 h ([1]; po): 39 ± 10.2 ng/mL; concentration at 4 h ([1]; po): 28.2 ± 8.4 ng/mL; concentration at 6 h ([1]; po): 22.6 ± 5.7 ng/mL; concentration at 8 h ([1]; po): 19.6 ± 4.8 ng/mL; concentration at 10 h ([1]; po): 16.6 ± 3.5 ng/mL; concentration at 12 h ([1]; po): 13.5 ± 2.3 ng/mL; concentration at 24 h ([1]; po): 10.6 ± 1.7 ng/mL; AUC and Cmax, sublingual versus oral [1]: comparable; plasmatic concentration peak ([2]; after oral administration): ~17 ng/mL; plasmatic concentration peak ([2]; after sublingual administration): about 25 ng/ml; absorption of sublingual formulation compared to oral tablets and intramuscular formulation ([2]; during the first 60 minutes, 2 mg): higher
3 | CN1C(=O)CN=C(c2ccccc2)c2cc(Cl)ccc21 [DIAZEPAM, diazepam] |  |  |  |  |  |  |  |  |  |  |  |  |  |  |  |  |  |  |  |  | hematological rates after sublingual administration in relation to oral administration ([1]; first hour): definitely higher

Source: patent US8168625B2, “Pharmaceutical composition based on agonist of benzodiazepine” (Sigma Pharma Ltda., priority 2003, dated 2012)
